# Data taken from patent US20210130339A1, “COMPOUNDS” (GLAXOSMITHKLINE INTELLECTUAL PROPERTY DEVELOPMENT LIMITED, priority 2017, published 2021).
# “And” between values parts separate entries of the source, which are not always exact repeats. Identical values can stand only once.
# What was measured:
# [1] = biological target: T1, recombinant full length LRRK2 (Homo sapiens, UniProt Q5S007); experiment: Recombinant cellular LRRK2 AlphaScreen assay; assay type: cell-based; details: LRRK2 Ser935 phosphorylation, SH-SY5Y cells over-expressing recombinant full length LRRK2; read-out: pIC50 in the recombinant cellular LRRK2 AlphaScreen assay (converted)
# T1 construct: A BacMam virus expressing full length recombinant LRRK2 was purchased from Invitrogen; host or cells: SH-SY5Y human neuroblastoma cells transduced with BacMam LRRK2 virus (MOI 50)
# Source text: b. Recombinant Cellular LRRK2 AlphaScreen Assay
# To determine the activity of compounds against LRRK2 kinase activity in cells, the observed LRRK2 kinase-dependent modulation of LRRK2 Ser 935 phosphorylation (Dzamko et al., 2010, Biochem. J. 430: 405-413) was utilized to develop a quantitative 384 well plate-based immunoassay of LRRK2 Ser935 phosphorylation in the human neuroblastoma cell line SH-SY5Y, engineered to over-express recombinant full length LRRK2 protein. A BacMam virus expressing full length recombinant LRRK2 was purchased from Invitrogen and amplified by inoculation of SF-9 cells at MOI 0.3 for 4-5 days in Sf-900 III SFM medium supplemented with 3% fetal bovine serum. Infected cell cultures were then centrifuged at 2000 g for 20 minutes, viral supernatant titer determined by anti-gp64 plaque assay and stored at 4° C. Affinity-purified anti-phospho LRRK2 Ser935 sheep polyclonal antibody (Dzamko et al., 2010, Biochem. J. 430: 405-413) was biotinylated by standard methods (PerkinElmer). Anti-LRRK2 rabbit polyclonal antibody was purchased from Novus Biologicals. AlphaScreen Protein A IgG Kit (including acceptor and donor beads) was purchased from Perkin Elmer. SH-SY5Y cells were grown in DMEM/F12 medium with 10% dialysed fetal bovine serum and harvested by treatment with 0.5% trypsin-EDTA for 5 minutes at 37° C. followed by centrifugation at 1000 rpm for 4 minutes. The cell pellet was resuspended in Opti-MEM reduced serum media (Invitrogen) at 200,000 cells/ml and mixed with the BacMam LRRK2 virus at MOI=50. 50 μl cell solutions were then dispensed to each well of a 384-well plate and incubated at 37° C., 5% CO2 for 24 hours. Serial dilutions of test compounds were prepared in Opti-MEM reduced serum media (Invitrogen) and 5.6 ul transferred from compound plate to cell assay plate to achieve a top final assay concentration of 10 uM. DMSO was used in certain wells as controls. Cells were incubated at 37° C., 5% CO2 for 60 minutes. The medium was then removed and cells lysed by addition of 20 ul cell lysis buffer (Cell Signaling Technology) and incubation at 4° C. for 20 minutes. 10 ul of antibody/acceptor bead mix [(1/1000 biotinylated-pS935 LRRK2 antibody, 1/1000 total-LRRK2 antibody, 1/100 Acceptor beads in AlphaScreen detection buffer (25 mM Hepes (pH 7.4), 0.5% Triton X-100, 1 mg/ml Dextran 500 and 0.1% BSA)] was then added to each well and plates incubated for 2 hours at ambient temperature in the dark. 10 μl of donor beads solution (1/33.3 donor beads in AlphaScreen detection buffer) was then added to each well. Following incubation for a further 2 hours at ambient temperature in the dark, plates were read on an EnVision™ plate reader at emission 520-620 nm with excitation 680 nm. Dose response curve data was based on sigmoidal dose-response model.
# [2] = biological target: T2, Full length G2019 human LRRK2 (Homo sapiens, UniProt Q5S007); experiment: Full length G2019 human LRRK2 Inhibition Mass Spectrometry assay; assay type: biochemical; details: LRRKtide substrate, RapidFire mass spectrometry; read-out: pIC50 in the Full length G2019 human LRRK2 Inhibition Mass Spectrometry assay (converted)
# T2 construct: purified recombinant Full length Flag-LRRK2 in assay buffer; made in house; host or cells: HEK293 6E cells transduced with BacMam virus (virus generated in Sf9 cells)
# Description: a. Full Length G2019 Human LRRK2 Inhibition Mass Spectrometry Assay
# This assay for Leucine Rich Repeat Kinase 2 (LRRK2) inhibition is based on the direct measurement of the peptide ‘LRRKtide’ (LRRKtide: RLGRDKYKT*LRQIRQ and “*” refers to the site of phosphorylation.) and phosphorylated ‘LRRKtide’ using a high throughput RapidFire mass spectrometry assay. Inhibitors are compounds that reduce the conversion of LRRKtide to phospho-LRRKtide.
# HEK293 6E cells were incubated in a 37° C. incubator with a humidified atmosphere of 5% CO2 on an orbital shaker rotating at 110 rpm. On the day of transduction, the cell viability was higher than 98% and the cell density was in the range of 1×10^6˜1.5×10^6 cells/ml. HEK293 6E cells were centrifuged at 1,000 rpm for 10 min, and then the cells were resuspended in fresh Freestyle 293 expression medium (Invitrogen:12338) with 0.1% F-68 (Invitrogen:24040-032) but without antibiotics (G418) at density of 1×10^6 cells/ml. BacMam virus with Flag-hu LRRK2 (genotypically normal) gene was centrifuged at 40,000 g for 2 hours, then resuspended in fresh Freestyle 293 expression medium. The resuspended virus was added into the cells in at MOI of 10. The cells were incubated in a 37° C. incubator with a humidified atmosphere of 5% CO2 in air on an orbital shaker rotating at 110 rpm. Cultures were harvested at approximately 48 hours post-transduction by centrifugation at 4,000 rpm for 20 min and pellets were frozen for purification.
# The suspended cells were lysed by sonication on ice for 30 min (2 secs on/4 sec off, 20% amplitude), and centrifuged at 10,000 rpm for 30 minutes at 4° C. The supernatant was incubated with 1 mL per litre of cell culture of anti-Flag magnetic beads (Sigma-Aldrich: M8823) at 4° C. for 3 hours, then the beads were washed by 5 mL (5 column volume) binding buffer (50 mM Tris pH7.5@ 4C, 500 mM NaCl, 0.5 mM EDTA, 0.1% TritonX-100, 10% glycerol, freshly add 2 mM DTT) for three times. The Flag tagged LRRK2 proteins were eluted by Elution buffer (50 mM Tris pH7.5@ 4C, 500 mM NaCl, 0.5 mM EDTA, 0.1% TritonX-100, 10% glycerol, freshly add 2 mM DTT, 250 ug/ml Flag peptide (Sigma-Aldrich:F3290)) at 4° C. for 2 hours. Flag peptide was removed by Zeba Spin Desalting Columns, 7K MWCO (Thermo-Fisher: 89893) and the buffer of eluted LRRK2 proteins was exchanged into Storage Buffer (50 mM Tris pH7.5@4C, 150 mM NaCl, 0.5 mM EDTA, 0.02% Triton X-100, 2 mM DTT and 50% Glycerol) using Amicon Ultra Centrifugal Filter Units (100 kD) (Merck: UFC910096). Fractions containing LRRK2 proteins were pooled, aliquoted and stored at −80° C. Protein concentration was determined by Bradford protein assay, and protein purity was analyzed by NuPAG Novex 4-12% Bis-Tris Protein Gels (Invitrogen: NP0322BOX).
# • 1) A 10 mM test compound was dissolved in 100% DMSO and serially diluted 1 in 4. 100 nL of this dilution series was then added to a 384 well, v bottom polypropylene plate, excluding columns 6 and 18. 100 nL of DMSO was added to columns 6 and 18 as controls wells. Assay dilution gave a top final assay concentration of test compound of 100 μM • 2) 50 μl of 1% formic acid in laboratory grade water was added to column 18 using a multidrop combi dispenser to act as a pre stopped assay control. • 3) 5 μl of ‘enzyme solution’ containing 50 nM of purified recombinant Full length Flag-LRRK2 in assay buffer (50 mM Hepes (pH 7.2), 10 mM MgCl2, 150 mM NaCl, 5% glycerol, 0.0025% triton X-100 and 1 mM DTT) was added to all wells using a multidrop combi dispenser, giving a final assay concentration of 25 nM LRRK2 enzyme. […] Test plates were then incubated for 30 minutes at room temperature. • 4) 5 μl ‘substrate solution’ containing 50 uM LRRKtide peptide substrate and 4 mM ATP was added to all wells of the plate using a multidrop combi dispenser giving a final assay concentration of 25 uM LRRKtide and 2 mM ATP. Test plates were then incubated for 1 hour at room temperature. […]
# T2 sequence (Q5S007 with tags, fused parts or gaps R50H): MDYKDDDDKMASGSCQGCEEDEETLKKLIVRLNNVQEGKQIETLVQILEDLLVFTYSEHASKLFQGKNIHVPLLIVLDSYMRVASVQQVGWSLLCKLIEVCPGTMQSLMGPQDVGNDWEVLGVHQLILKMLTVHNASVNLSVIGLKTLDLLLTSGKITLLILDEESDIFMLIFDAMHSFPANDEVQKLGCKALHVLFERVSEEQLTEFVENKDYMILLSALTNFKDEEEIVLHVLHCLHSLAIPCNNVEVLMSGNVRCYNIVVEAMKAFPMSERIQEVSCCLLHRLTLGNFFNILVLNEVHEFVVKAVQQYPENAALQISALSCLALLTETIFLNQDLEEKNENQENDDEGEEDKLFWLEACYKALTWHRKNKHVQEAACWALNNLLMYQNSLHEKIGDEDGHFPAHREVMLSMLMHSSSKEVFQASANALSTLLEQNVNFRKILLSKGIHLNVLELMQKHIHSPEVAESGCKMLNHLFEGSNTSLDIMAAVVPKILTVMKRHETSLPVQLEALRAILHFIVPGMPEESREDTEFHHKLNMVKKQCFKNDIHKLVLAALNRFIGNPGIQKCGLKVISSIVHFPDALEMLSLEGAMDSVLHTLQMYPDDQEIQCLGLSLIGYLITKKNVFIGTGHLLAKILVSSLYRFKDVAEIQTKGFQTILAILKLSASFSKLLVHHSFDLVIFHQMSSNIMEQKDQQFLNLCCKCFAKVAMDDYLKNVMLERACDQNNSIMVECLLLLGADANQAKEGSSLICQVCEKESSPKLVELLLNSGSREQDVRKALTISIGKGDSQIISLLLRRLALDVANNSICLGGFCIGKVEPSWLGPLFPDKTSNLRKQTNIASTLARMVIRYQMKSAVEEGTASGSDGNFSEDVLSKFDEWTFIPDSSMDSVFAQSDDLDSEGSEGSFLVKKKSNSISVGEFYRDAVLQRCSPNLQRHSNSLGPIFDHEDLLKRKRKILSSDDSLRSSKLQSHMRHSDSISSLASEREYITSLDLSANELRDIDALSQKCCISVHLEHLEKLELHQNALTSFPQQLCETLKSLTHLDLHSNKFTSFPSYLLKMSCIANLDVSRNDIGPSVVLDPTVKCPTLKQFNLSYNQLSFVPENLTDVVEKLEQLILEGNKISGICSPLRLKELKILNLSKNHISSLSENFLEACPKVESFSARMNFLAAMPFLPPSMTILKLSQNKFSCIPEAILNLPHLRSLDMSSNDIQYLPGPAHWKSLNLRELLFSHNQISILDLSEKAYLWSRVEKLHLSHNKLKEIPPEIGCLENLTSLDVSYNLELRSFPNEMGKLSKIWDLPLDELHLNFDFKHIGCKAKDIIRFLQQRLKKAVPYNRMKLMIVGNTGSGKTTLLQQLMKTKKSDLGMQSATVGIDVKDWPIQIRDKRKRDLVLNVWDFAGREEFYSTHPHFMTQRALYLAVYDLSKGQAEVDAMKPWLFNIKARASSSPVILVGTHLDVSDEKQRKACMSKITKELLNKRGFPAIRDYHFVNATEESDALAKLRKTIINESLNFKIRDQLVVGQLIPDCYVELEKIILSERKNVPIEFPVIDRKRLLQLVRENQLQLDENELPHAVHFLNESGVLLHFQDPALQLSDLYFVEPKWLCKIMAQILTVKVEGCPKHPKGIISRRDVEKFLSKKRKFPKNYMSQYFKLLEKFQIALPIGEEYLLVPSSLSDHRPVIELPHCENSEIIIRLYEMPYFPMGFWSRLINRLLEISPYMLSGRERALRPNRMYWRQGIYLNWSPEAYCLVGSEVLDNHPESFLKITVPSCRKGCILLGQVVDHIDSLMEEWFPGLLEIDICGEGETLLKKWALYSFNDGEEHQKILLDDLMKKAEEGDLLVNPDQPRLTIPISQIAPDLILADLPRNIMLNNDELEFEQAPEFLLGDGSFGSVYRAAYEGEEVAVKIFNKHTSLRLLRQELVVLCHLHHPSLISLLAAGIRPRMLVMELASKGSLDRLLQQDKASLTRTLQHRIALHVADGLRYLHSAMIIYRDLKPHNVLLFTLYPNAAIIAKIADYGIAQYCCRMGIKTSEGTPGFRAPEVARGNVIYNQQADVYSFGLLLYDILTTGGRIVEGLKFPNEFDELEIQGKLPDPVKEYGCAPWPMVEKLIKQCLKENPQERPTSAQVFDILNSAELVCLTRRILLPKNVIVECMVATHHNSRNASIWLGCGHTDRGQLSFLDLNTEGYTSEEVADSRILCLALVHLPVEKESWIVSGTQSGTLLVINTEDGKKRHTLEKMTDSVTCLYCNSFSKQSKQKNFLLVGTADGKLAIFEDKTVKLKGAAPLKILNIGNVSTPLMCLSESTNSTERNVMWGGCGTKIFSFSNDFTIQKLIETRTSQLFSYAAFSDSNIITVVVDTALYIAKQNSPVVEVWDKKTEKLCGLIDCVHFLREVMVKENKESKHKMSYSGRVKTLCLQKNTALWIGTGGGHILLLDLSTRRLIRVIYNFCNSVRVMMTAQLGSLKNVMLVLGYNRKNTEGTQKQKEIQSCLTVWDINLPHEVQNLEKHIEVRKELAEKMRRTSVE
# T1 sequence (Q5S007 whole entry): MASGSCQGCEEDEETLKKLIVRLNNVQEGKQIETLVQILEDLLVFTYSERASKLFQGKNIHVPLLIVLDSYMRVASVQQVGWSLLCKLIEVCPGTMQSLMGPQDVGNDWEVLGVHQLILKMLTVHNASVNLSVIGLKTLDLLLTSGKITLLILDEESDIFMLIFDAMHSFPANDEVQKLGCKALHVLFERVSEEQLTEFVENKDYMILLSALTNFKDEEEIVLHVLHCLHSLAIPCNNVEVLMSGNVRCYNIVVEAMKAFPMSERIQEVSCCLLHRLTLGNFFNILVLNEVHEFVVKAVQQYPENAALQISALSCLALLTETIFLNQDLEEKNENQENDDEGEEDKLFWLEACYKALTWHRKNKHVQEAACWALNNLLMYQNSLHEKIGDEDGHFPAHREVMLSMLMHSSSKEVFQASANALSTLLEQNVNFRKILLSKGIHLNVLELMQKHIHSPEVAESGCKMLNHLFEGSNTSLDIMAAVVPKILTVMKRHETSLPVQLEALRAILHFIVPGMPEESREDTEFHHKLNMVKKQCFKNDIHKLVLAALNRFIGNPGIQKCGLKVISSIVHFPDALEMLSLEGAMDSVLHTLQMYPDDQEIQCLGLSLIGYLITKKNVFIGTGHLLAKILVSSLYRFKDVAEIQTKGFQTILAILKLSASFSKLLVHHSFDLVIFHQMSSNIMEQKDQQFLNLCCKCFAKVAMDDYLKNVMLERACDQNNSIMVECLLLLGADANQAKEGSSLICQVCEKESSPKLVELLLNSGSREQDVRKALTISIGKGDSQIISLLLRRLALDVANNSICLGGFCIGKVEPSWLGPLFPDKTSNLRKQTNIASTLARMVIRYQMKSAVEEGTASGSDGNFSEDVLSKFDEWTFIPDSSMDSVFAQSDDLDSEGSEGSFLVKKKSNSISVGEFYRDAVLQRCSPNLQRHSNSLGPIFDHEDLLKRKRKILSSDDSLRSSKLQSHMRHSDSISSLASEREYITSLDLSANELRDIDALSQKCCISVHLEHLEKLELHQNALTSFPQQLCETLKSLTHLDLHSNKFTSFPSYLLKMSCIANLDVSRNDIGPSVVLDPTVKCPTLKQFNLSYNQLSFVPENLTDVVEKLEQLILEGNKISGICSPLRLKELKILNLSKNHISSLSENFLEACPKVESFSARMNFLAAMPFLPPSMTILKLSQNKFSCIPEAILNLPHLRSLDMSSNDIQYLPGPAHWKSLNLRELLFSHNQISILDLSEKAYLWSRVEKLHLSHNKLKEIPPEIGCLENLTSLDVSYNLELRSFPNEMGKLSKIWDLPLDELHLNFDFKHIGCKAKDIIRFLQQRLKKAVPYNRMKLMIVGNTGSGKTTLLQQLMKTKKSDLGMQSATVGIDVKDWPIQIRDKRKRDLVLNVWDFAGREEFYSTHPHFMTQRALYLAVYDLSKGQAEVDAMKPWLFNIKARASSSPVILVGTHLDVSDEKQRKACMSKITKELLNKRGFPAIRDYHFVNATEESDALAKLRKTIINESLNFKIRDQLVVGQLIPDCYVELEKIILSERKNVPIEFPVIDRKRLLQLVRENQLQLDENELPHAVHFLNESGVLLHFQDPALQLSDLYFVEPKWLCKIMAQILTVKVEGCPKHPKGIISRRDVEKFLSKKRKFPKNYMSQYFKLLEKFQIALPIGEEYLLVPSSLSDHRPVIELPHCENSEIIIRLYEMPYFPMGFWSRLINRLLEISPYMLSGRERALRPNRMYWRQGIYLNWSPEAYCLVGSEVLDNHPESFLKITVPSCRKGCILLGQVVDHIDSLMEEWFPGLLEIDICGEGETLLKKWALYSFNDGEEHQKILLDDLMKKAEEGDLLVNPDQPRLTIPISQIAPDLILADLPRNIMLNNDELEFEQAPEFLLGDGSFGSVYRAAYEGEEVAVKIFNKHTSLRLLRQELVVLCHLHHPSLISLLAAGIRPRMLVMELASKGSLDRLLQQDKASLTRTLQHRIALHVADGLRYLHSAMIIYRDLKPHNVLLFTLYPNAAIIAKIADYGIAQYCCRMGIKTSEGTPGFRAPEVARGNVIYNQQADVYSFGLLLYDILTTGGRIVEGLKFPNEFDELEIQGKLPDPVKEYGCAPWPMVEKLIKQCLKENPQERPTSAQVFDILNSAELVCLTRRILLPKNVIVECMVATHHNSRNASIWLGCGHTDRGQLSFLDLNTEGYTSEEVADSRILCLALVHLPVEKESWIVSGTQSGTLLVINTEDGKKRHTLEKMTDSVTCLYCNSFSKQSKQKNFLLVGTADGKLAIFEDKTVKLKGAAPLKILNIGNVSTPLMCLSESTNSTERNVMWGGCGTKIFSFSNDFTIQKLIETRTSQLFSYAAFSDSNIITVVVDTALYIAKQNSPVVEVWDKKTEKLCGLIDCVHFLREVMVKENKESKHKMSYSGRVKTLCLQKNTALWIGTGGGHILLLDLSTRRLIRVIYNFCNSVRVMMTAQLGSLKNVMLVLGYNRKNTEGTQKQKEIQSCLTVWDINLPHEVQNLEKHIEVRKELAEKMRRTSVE
Structure (SMILES),IC50 [1],IC50 [2]
"COc1nc(N2CC(O)C2)cc(-n2ncc3cc(Cl)c(C4CCN(C5CCOC5)CC4)cc32)n1 (single isomer, unassigned) [Example E30, 1-(6-(5-Chloro-6-(1-(tetrahydrofuran-3-yl)piperidin-4-yl)-1H-indazol-1-yl)-2-methoxy-pyrimidin-4-yl)azetidin-3-ol]",≤ 100 nM,≤ 1000 nM
"[2H]C1(N2CCC(c3cc4c(cnn4-c4cc(N5CCO[C@H](CO)C5)nc(C)n4)cc3C)CC2)CCOC1 (single isomer, unassigned) [Example E33]",,≤ 1000 nM
"Cc1nc(N2CCO[C@@H](CO)C2)cc(-n2ncc3cc(C)c(C4CCN(C5CCOC5)CC4F)cc32)n1 (single isomer, unassigned) [Example E102]",≤ 1000 nM,≤ 100 nM
"Cc1nc(N2CCO[C@H](CO)C2)cc(-n2ncc3cc(C)c(C4CCN(C5CCOC5)CC4F)cc32)n1 (single isomer, unassigned) [Example E106]",≤ 1000 nM,≤ 100 nM
"Cc1nc(N2CCOC[C@H]2CO)cc(-n2ncc3cc(C)c(C4CCN(C5CCOC5)CC4)cc32)n1 (single isomer, unassigned) [Example E111]",,≤ 1000 nM
"Cc1nc(N2CCOC[C@@H]2CO)cc(-n2ncc3cc(C)c(C4CCN(C5CCOC5)CC4)cc32)n1 (single isomer, unassigned) [Example E113]",≤ 1000 nM,≤ 1000 nM
"Cc1nc(N2CC(C)(O)C2)cc(-n2ncc3cc(Cl)c(C4CCN(C5CCOC5)CC4)cc32)n1 (single isomer, unassigned) [Example E127, 1-(6-(5-chloro-6-(1-(tetrahydrofuran-3-yl)piperidin-4-yl)-1H-indazol-1-yl)-2-methyl-pyrimidin-4-yl)-3-methylazetidin-3-ol]",,≤ 100 nM
"Cc1nc(N[C@H]2CCOC2)cc(-n2ncc3cc(C)c(C4CCN(C5CCOC5)CC4)cc32)n1 (stereo partly drawn) [Example E144, 2-methyl-6-(5-methyl-6-(1-(tetrahydrofuran-3-yl)piperidin-4-yl)-1H-indazol-1-yl)-N—((S)-tetrahydrofuran-3-yl)pyrimidin-4-amine]",≤ 1000 nM,

# More lines, now with the values ahead:
IC50 [1],IC50 [2],Structure (SMILES)
≤ 100 nM and 126 nM,79.4 nM,"Cc1nc(N2CCO[C@H](CO)C2)cc(-n2ncc3cc(C)c(C4CCN(C5CCOC5)CC4)cc32)n1 (single isomer, unassigned) [Example E1]"
100 nM,25.1 nM,"Cc1nc(N2CCO[C@@H](CO)C2)cc(-n2ncc3cc(C)c(C4CCN([C@H]5CCOC5)CC4)cc32)n1 (single isomer, unassigned) [Example E4]"
≤ 100 nM,≤ 1000 nM,"Cc1nc(N2CC(O)C2)cc(-n2ncc3cc(C)c(C4CCN(C5CCOC5)CC4F)cc32)n1 (single isomer, unassigned) [Example E13, cis-1-(6-(6-(3-Fluoro-1-(tetrahydrofuran-3-yl)piperidin-4-yl)-5-methyl-1H-indazol-1-yl)-2-methylpyrimidin-4-yl)azetidin-3-ol]"
≤ 100 nM and 100 nM,≤ 1000 nM and 63.1 nM,"[2H]C1(N2CCC(c3cc4c(cnn4-c4cc(N5CCO[C@H](CO)C5)nc(C)n4)cc3C)CC2)CCOC1 (single isomer, unassigned) [Example E34]"
≤ 10 nM,≤ 10 nM,"COc1nc(N2CCOCC2)cc(-n2ncc3cc(C)c(C4CCN(C5CCOC5)CC4F)cc32)n1 (single isomer, unassigned) [Example E115, Cis-4-(6-(6-(3-fluoro-1-(tetrahydrofuran-3-yl)-piperidin-4-yl)-5-methyl-1H-indazol-1-yl)-2-methoxypyrimidin-4-yl)morpholine]"
≤ 100 nM,≤ 100 nM,"COc1nc(N2CCOCC2)cc(-n2ncc3cc(C)c(C4CCN(C5CCOC5)CC4F)cc32)n1 (single isomer, unassigned) [Example E116, Cis-4-(6-(6-(3-fluoro-1-(tetrahydrofuran-3-yl)-piperidin-4-yl)-5-methyl-1H-indazol-1-yl)-2-methoxypyrimidin-4-yl)morpholine]"
≤ 10 nM,≤ 1000 nM,"COc1nc(N2CCO[C@@H](CO)C2)cc(-n2ncc3cc(C)c(C4CCN(C5CCOC5)CC4F)cc32)n1 (single isomer, unassigned) [Example E117]"
≤ 10 nM,≤ 10 nM,"COc1nc(N2CCO[C@@H](CO)C2)cc(-n2ncc3cc(C)c(C4CCN(C5CCOC5)CC4F)cc32)n1 (single isomer, unassigned) [Example E118]"
,≤ 1000 nM,"Cc1nc(OC2CC(O)C2)cc(-n2ncc3cc(C)c(C4CCN(C5CCOC5)CC4)cc32)n1 (single isomer, unassigned) [Example E146, 3-((2-methyl-6-(5-methyl-6-(1-(tetrahydrofuran-3-yl)piperidin-4-yl)-1H-indazol-1-yl)pyrimidin-4-yl)oxy)cyclobutanol]"
